Reference: ChEMBL document CHEMBL6092222 (J Med Chem, 2024)
≈ marks a conversion by molar mass, not a printed value.

What was measured:
[1] = Solubility of compound in FeSSIF at pH 5 by reversed-phase UPLC analysis; type: physicochemical
[2] = Solubility of compound in FaSSIF at pH 6.5 by reversed-phase UPLC analysis; type: physicochemical
[3] = Chemical stability of compound in 0.1 M HCl at pH 1 at 37 degreeC assessed as half life measured for 24 hrs by reversed phase-HPLC analysis; type: physicochemical
[4] = Chemical stability of compound in acetate buffer at pH 4 at 37 degreeC assessed as half life measured for 24 hrs by reversed phase-HPLC analysis; type: physicochemical
[5] = Chemical stability of compound in phosphate buffer at pH 6.5 at 37 degreeC assessed as half life measured for 24 hrs by reversed phase-HPLC analysis; type: physicochemical
[6] = Prodrug conversion in Pentagastrine-pretreated Sprague-Dawley rat assessed as Cmax of 6-(cyclopropanecarboxamido)-4-((2-methoxy-3-(2-methyl-2H-tetrazol-5-yl)phenyl)amino)-N-(methyl-d3)nicotinamide metabolite at 10 mg/kg, po measured for 24 hrs by UPLC-MS/MS analysis; type: ADME, organism-based; conditions: in vivo
[7] = Prodrug conversion in Famotidine-pretreated Sprague-Dawley rat assessed as Cmax of 6-(cyclopropanecarboxamido)-4-((2-methoxy-3-(2-methyl-2H-tetrazol-5-yl)phenyl)amino)-N-(methyl-d3)nicotinamide metabolite at 10 mg/kg, po measured for 24 hrs by UPLC-MS/MS analysis; type: ADME, organism-based; conditions: in vivo
[8] = Prodrug conversion in Pentagastrine-pretreated Sprague-Dawley rat assessed as Tmax of 6-(cyclopropanecarboxamido)-4-((2-methoxy-3-(2-methyl-2H-tetrazol-5-yl)phenyl)amino)-N-(methyl-d3)nicotinamide metabolite at 10 mg/kg, po measured for 24 hrs by UPLC-MS/MS analysis; type: ADME, organism-based; conditions: in vivo
[9] = Prodrug conversion in Famotidine-pretreated Sprague-Dawley rat assessed as Tmax of 6-(cyclopropanecarboxamido)-4-((2-methoxy-3-(2-methyl-2H-tetrazol-5-yl)phenyl)amino)-N-(methyl-d3)nicotinamide metabolite at 10 mg/kg, po measured for 24 hrs by UPLC-MS/MS analysis; type: ADME, organism-based; conditions: in vivo
[10] = Prodrug conversion in Pentagastrine-pretreated Sprague-Dawley rat assessed as AUC (total) of 6-(cyclopropanecarboxamido)-4-((2-methoxy-3-(2-methyl-2H-tetrazol-5-yl)phenyl)amino)-N-(methyl-d3)nicotinamide metabolite at 10 mg/kg, po measured for 24 hrs by UPLC-MS/MS analysis; type: ADME, organism-based; conditions: in vivo
[11] = Prodrug conversion in Famotidine-pretreated Sprague-Dawley rat assessed as AUC (total) of 6-(cyclopropanecarboxamido)-4-((2-methoxy-3-(2-methyl-2H-tetrazol-5-yl)phenyl)amino)-N-(methyl-d3)nicotinamide metabolite at 10 mg/kg, po measured for 24 hrs by UPLC-MS/MS analysis; type: ADME, organism-based; conditions: in vivo
[12] = target: Intestinal-type alkaline phosphatase (Homo sapiens, UniProt P09923); assay: Prodrug conversion in tris buffer at pH 7.4 assessed as intestinal recombinant human ALP-mediated 6-(cyclopropanecarboxamido)-4-((2-methoxy-3-(2-methyl-2H-tetrazol-5-yl)phenyl)amino)-N-(methyl-d3)nicotinamide metabolite formation by measuring half life of metabolite at 1 uM incubated for 30 mins by UPLC-MS/MS analysis; type: ADME; conditions: pH 7.4, 0.5 h
[13] = target: Intestinal-type alkaline phosphatase 1 (Rattus norvegicus, UniProt P15693); assay: Prodrug conversion in tris buffer at pH 7.4 assessed as intestinal recombinant rat ALP-mediated 6-(cyclopropanecarboxamido)-4-((2-methoxy-3-(2-methyl-2H-tetrazol-5-yl)phenyl)amino)-N-(methyl-d3)nicotinamide metabolite formation by measuring half life of metabolite at 1 uM incubated for 30 mins by UPLC-MS/MS analysis; type: ADME; conditions: pH 7.4, 0.5 h
[14] = Prodrug conversion in Sprague-Dawley rat assessed as Cmax of 6-(cyclopropanecarboxamido)-4-((2-methoxy-3-(2-methyl-2H-tetrazol-5-yl)phenyl)amino)-N-(methyl-d3)nicotinamide metabolite at 5 mg/kg, po measured for 24 hrs by UPLC-MS/MS analysis; type: ADME, organism-based; conditions: in vivo
[15] = Cmax in Sprague-Dawley rat at 5 mg/kg, po measured for 24 hrs by UPLC-MS/MS analysis; type: ADME, organism-based; conditions: in vivo
[16] = Prodrug conversion in Sprague-Dawley rat assessed as Cmax of 6-(cyclopropanecarboxamido)-4-((2-methoxy-3-(2-methyl-2H-tetrazol-5-yl)phenyl)amino)-N-(methyl-d3)nicotinamide metabolite at 25 mg/kg, po measured for 24 hrs by UPLC-MS/MS analysis; type: ADME, organism-based; conditions: in vivo
[17] = Cmax in Sprague-Dawley rat at 25 mg/kg, po measured for 24 hrs by UPLC-MS/MS analysis; type: ADME, organism-based; conditions: in vivo
[18] = Prodrug conversion in Sprague-Dawley rat assessed as Cmax of 6-(cyclopropanecarboxamido)-4-((2-methoxy-3-(2-methyl-2H-tetrazol-5-yl)phenyl)amino)-N-(methyl-d3)nicotinamide metabolite at 150 mg/kg, po measured for 24 hrs by UPLC-MS/MS analysis; type: ADME, organism-based; conditions: in vivo
[19] = Prodrug conversion in Sprague-Dawley rat assessed as Tmax of 6-(cyclopropanecarboxamido)-4-((2-methoxy-3-(2-methyl-2H-tetrazol-5-yl)phenyl)amino)-N-(methyl-d3)nicotinamide metabolite at 5 mg/kg, po measured for 24 hrs by UPLC-MS/MS analysis; type: ADME, organism-based; conditions: in vivo
[20] = Tmax in Sprague-Dawley rat at 5 mg/kg, po measured for 24 hrs by UPLC-MS/MS analysis; type: ADME, organism-based; conditions: in vivo
[21] = Prodrug conversion in Sprague-Dawley rat assessed as Tmax of 6-(cyclopropanecarboxamido)-4-((2-methoxy-3-(2-methyl-2H-tetrazol-5-yl)phenyl)amino)-N-(methyl-d3)nicotinamide metabolite at 25 mg/kg, po measured for 24 hrs by UPLC-MS/MS analysis; type: ADME, organism-based; conditions: in vivo
[22] = Tmax in Sprague-Dawley rat at 25 mg/kg, po measured for 24 hrs by UPLC-MS/MS analysis; type: ADME, organism-based; conditions: in vivo
[23] = Prodrug conversion in Sprague-Dawley rat assessed as Tmax of 6-(cyclopropanecarboxamido)-4-((2-methoxy-3-(2-methyl-2H-tetrazol-5-yl)phenyl)amino)-N-(methyl-d3)nicotinamide metabolite at 150 mg/kg, po measured for 24 hrs by UPLC-MS/MS analysis; type: ADME, organism-based; conditions: in vivo
[24] = Prodrug conversion in Sprague-Dawley rat assessed as AUC of 6-(cyclopropanecarboxamido)-4-((2-methoxy-3-(2-methyl-2H-tetrazol-5-yl)phenyl)amino)-N-(methyl-d3)nicotinamide metabolite at 5 mg/kg, po measured for 24 hrs by UPLC-MS/MS analysis; type: ADME, organism-based; conditions: in vivo
[25] = AUC in Sprague-Dawley rat at 5 mg/kg, po measured for 24 hrs by UPLC-MS/MS analysis; type: ADME, organism-based; conditions: in vivo
[26] = Prodrug conversion in Sprague-Dawley rat assessed as AUC of 6-(cyclopropanecarboxamido)-4-((2-methoxy-3-(2-methyl-2H-tetrazol-5-yl)phenyl)amino)-N-(methyl-d3)nicotinamide metabolite at 25 mg/kg, po measured for 24 hrs by UPLC-MS/MS analysis; type: ADME, organism-based; conditions: in vivo
[27] = AUC in Sprague-Dawley rat at 25 mg/kg, po measured for 24 hrs by UPLC-MS/MS analysis; type: ADME, organism-based; conditions: in vivo
[28] = Prodrug conversion in Sprague-Dawley rat assessed as AUC of 6-(cyclopropanecarboxamido)-4-((2-methoxy-3-(2-methyl-2H-tetrazol-5-yl)phenyl)amino)-N-(methyl-d3)nicotinamide metabolite at 150 mg/kg, po measured for 24 hrs by UPLC-MS/MS analysis; type: ADME, organism-based; conditions: in vivo
physchem [29] = conditions: aqueous buffer, pH 1
Description: Solubility of compound in aqueous buffer at pH 1 at 25 degreeC by reversed phase-HPLC analysis

physchem [30] = conditions: aqueous buffer, pH 4
Description: Solubility of compound in aqueous buffer at pH 4 at 25 degreeC by reversed phase-HPLC analysis

physchem [31] = conditions: aqueous buffer, pH 6.5
Description: Solubility of compound in aqueous buffer at pH 6.5 at 25 degreeC by reversed phase-HPLC analysis

Chain of Intestinal-type alkaline phosphatase 1 (P15693 whole entry): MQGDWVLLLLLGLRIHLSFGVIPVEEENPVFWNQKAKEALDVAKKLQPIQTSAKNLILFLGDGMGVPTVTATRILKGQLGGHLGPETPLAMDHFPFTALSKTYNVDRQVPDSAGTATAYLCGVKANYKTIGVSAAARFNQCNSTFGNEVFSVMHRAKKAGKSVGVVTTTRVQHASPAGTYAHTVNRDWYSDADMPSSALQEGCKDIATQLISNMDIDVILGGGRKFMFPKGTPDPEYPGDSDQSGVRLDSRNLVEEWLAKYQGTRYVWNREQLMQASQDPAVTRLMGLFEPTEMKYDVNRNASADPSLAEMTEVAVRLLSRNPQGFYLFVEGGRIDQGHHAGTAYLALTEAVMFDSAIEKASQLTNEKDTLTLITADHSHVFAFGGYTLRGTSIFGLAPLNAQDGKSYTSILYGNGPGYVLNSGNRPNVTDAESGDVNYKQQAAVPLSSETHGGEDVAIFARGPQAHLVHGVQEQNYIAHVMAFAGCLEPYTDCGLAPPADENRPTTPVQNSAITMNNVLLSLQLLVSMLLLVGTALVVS
Chain of Intestinal-type alkaline phosphatase (P09923 whole entry): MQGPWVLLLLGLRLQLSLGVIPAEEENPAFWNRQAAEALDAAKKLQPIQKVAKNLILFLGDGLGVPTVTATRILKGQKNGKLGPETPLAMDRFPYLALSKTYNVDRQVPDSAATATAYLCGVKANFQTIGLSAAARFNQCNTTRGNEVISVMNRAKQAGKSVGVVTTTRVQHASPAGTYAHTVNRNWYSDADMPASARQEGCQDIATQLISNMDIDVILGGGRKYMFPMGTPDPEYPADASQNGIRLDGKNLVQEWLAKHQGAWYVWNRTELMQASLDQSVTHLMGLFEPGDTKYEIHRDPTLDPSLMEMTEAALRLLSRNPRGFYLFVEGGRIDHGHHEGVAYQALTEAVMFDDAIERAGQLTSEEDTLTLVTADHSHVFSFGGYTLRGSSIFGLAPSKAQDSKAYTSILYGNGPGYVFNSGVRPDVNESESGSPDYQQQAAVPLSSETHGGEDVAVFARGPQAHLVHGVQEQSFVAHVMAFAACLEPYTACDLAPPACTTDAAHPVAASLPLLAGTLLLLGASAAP

SMILES: [2H]C([2H])([2H])NC(=O)c1cn(COP(=O)(O)O)/c(=N/C(=O)C2CC2)cc1Nc1cccc(-c2nnn(C)n2)c1OC
- solubility [1]: 100 µg/mL (≈ 187 µM)
- solubility [2]: 1630 µg/mL (≈ 3040 µM)
- half-life [3]: > 500 h
- half-life [4]: 286 h
- half-life [5]: 67.1 h
- Cmax [6]: 11.4 µM
- Cmax [7]: 12.4 µM
- Tmax [8]: 1 h
- Tmax [9]: 1.5 h
- AUC [10]: 63 µM·h
- AUC [11]: 69 µM·h
- t1/2 [12]: < 5 min
- t1/2 [13]: < 5 min
- Cmax [14]: 4.91 µM
- Cmax [15]: Below_limit_of_detection
- Cmax [16]: 13 µM
- Cmax [17]: Below_limit_of_detection
- Cmax [18]: 58.2 µM
- Tmax [19]: 0.5 h
- Tmax [20]: Below_limit_of_detection
- Tmax [21]: 3 h
- Tmax [22]: Below_limit_of_detection
- Tmax [23]: 3 h
- AUC [24]: 19.2 µM·h
- AUC [25]: Below_limit_of_detection
- AUC [26]: 96.9 µM·h
- AUC [27]: Below_limit_of_detection
- AUC [28]: 804.3 µM·h
- solubility (physchem [29]): 16 µg/mL (≈ 29.9 µM)
- solubility (physchem [30]): 27 µg/mL (≈ 50.4 µM)
- solubility (physchem [31]): 660 µg/mL (≈ 1230 µM)
